Reference: PubChem BioAssay (NCI)
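Step 1: Grow cells in 96-well plates. Step 2: Expose to compound for 48 hours at 5 concentrations. Step 3: Interpolate endpoints linearly; if unreached, use highest concentration. TGI denotes the concentration required for complete inhibition of growth.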

What was measured:
Test in all cases: growth of human tumour cells (NCI), 48 h
PC-3 prostate = system: PC-3 prostate
U251 CNS = system: U251 CNS
NCI-H23 lung = system: NCI-H23 lung
MCF7 breast = system: MCF7 breast
HCT-116 colon = system: HCT-116 colon
EKVX NSCLC = system: EKVX NSCLC
CAKI-1 renal = system: CAKI-1 renal
OVCAR-8 ovarian = system: OVCAR-8 ovarian
MOLT-4 leukemia = system: MOLT-4 leukemia
HOP-92 NSCLC = system: HOP-92 NSCLC
M14 melanoma = system: M14 melanoma
HCC-2998 colon = system: HCC-2998 colon
BT-549 breast = system: BT-549 breast
HCT-15 colon = system: HCT-15 colon
CCRF-CEM leukemia = system: CCRF-CEM leukemia
A549 NSCLC = system: A549 NSCLC
TK-10 renal = system: TK-10 renal
SK-MEL-2 melanoma = system: SK-MEL-2 melanoma
SK-MEL-28 melanoma = system: SK-MEL-28 melanoma
ACHN renal = system: ACHN renal
SN12C renal = system: SN12C renal
SF-539 CNS = system: SF-539 CNS
SF-295 CNS = system: SF-295 CNS
UACC-62 melanoma = system: UACC-62 melanoma
SK-MEL-5 melanoma = system: SK-MEL-5 melanoma
HS 578T breast = system: HS 578T breast
HOP-62 NSCLC = system: HOP-62 NSCLC
RXF 393 renal = system: RXF 393 renal
NCI-H460 lung = system: NCI-H460 lung
IGROV1 ovarian = system: IGROV1 ovarian
SK-OV-3 ovarian = system: SK-OV-3 ovarian
NCI-H226 lung = system: NCI-H226 lung
SNB-75 CNS = system: SNB-75 CNS
UO-31 renal = system: UO-31 renal
MDA-MB-435 = system: MDA-MB-435
NCI-H522 lung = system: NCI-H522 lung
SW-620 colon = system: SW-620 colon
COLO 205 colon = system: COLO 205 colon
786-0 renal = system: 786-0 renal
DU-145 prostate = system: DU-145 prostate
OVCAR-4 ovarian = system: OVCAR-4 ovarian
KM12 colon = system: KM12 colon
OVCAR-5 ovarian = system: OVCAR-5 ovarian
NCI/ADR-RES ovarian = system: NCI/ADR-RES ovarian
HL-60(TB) leukemia = system: HL-60(TB) leukemia
OVCAR-3 ovarian = system: OVCAR-3 ovarian
UACC-257 melanoma = system: UACC-257 melanoma
SF-268 CNS = system: SF-268 CNS
LOX IMVI melanoma = system: LOX IMVI melanoma
MDA-MB-231 breast = system: MDA-MB-231 breast
MDA-N = system: MDA-N
SNB-19 CNS = system: SNB-19 CNS
K-562 leukemia = system: K-562 leukemia
HT29 colon = system: HT29 colon
RPMI-8226 leukemia = system: RPMI-8226 leukemia
SR leukemia = system: SR leukemia
A498 renal = system: A498 renal
MALME-3M melanoma = system: MALME-3M melanoma

With CCCCOC(=O)C(=O)C(CC(CC)C(=O)c1ccccc1)C(=O)C=C(C)C (stereo unspecified) the TGI (PC-3 prostate) was > 100 µM, the TGI (U251 CNS) was > 100 µM and the TGI (NCI-H23 lung) was > 100 µM. For the same compound, the TGI (MCF7 breast) was > 100 µM, the TGI (HCT-116 colon) was > 100 µM and the TGI (EKVX NSCLC) was > 100 µM. For the same compound, the TGI (CAKI-1 renal) was > 100 µM, the TGI (OVCAR-8 ovarian) was > 100 µM and the TGI (MOLT-4 leukemia) was > 100 µM. For the same compound, the TGI (HOP-92 NSCLC) was > 100 µM, the TGI (M14 melanoma) was > 100 µM and the TGI (HCC-2998 colon) was > 100 µM. For the same compound, the TGI (BT-549 breast) was > 100 µM, the TGI (HCT-15 colon) was > 100 µM and the TGI (CCRF-CEM leukemia) was > 100 µM. For the same compound, the TGI (A549 NSCLC) was > 100 µM, the TGI (TK-10 renal) was > 100 µM and the TGI (SK-MEL-2 melanoma) was > 100 µM. For the same compound, the TGI (SK-MEL-28 melanoma) was > 100 µM, the TGI (ACHN renal) was > 100 µM and the TGI (SN12C renal) was > 100 µM. The TGI (SF-539 CNS) was > 100 µM, the TGI (SF-295 CNS) was > 100 µM and the TGI (UACC-62 melanoma) was > 100 µM. For the same compound, the TGI (SK-MEL-5 melanoma) was > 100 µM, the TGI (HS 578T breast) was > 100 µM and the TGI (HOP-62 NSCLC) was > 100 µM. The TGI (RXF 393 renal) was > 100 µM, the TGI (NCI-H460 lung) was > 100 µM and the TGI (IGROV1 ovarian) was > 100 µM. For the same compound, the TGI (SK-OV-3 ovarian) was > 100 µM, the TGI (NCI-H226 lung) was > 100 µM and the TGI (SNB-75 CNS) was > 100 µM. For the same compound, the TGI (UO-31 renal) was > 100 µM, the TGI (MDA-MB-435) was > 100 µM and the TGI (NCI-H522 lung) was > 100 µM. For the same compound, the TGI (SW-620 colon) was > 100 µM, the TGI (COLO 205 colon) was > 100 µM and the TGI (786-0 renal) was > 100 µM. For the same compound, the TGI (DU-145 prostate) was > 100 µM, the TGI (OVCAR-4 ovarian) was > 100 µM and the TGI (KM12 colon) was > 100 µM. The TGI (OVCAR-5 ovarian) was > 100 µM, the TGI (NCI/ADR-RES ovarian) was > 100 µM and the TGI (HL-60(TB) leukemia) was > 100 µM. For the same compound, the TGI (OVCAR-3 ovarian) was > 100 µM, the TGI (UACC-257 melanoma) was > 100 µM and the TGI (SF-268 CNS) was > 100 µM. The TGI (LOX IMVI melanoma) was > 100 µM, the TGI (MDA-MB-231 breast) was > 100 µM and the TGI (MDA-N) was > 100 µM. For the same compound, the TGI (SNB-19 CNS) was > 100 µM.

For COc1cc2c[n+](C)c3c4cc(OC)c(OC)cc4c(OCc4ccccc4)cc3c2cc1OC, the TGI (PC-3 prostate) was 3.41 µM, the TGI (U251 CNS) was 1.08 µM and the TGI (NCI-H23 lung) was 4.36 µM. For the same compound, the TGI (K-562 leukemia) was > 100 µM, the TGI (MCF7 breast) was 5.05 µM and the TGI (HT29 colon) was 7.29 µM. For the same compound, the TGI (EKVX NSCLC) was > 100 µM, the TGI (CAKI-1 renal) was > 90.7 µM and the TGI (OVCAR-8 ovarian) was 5.02 µM. The TGI (MOLT-4 leukemia) was > 80.1 µM, the TGI (RPMI-8226 leukemia) was 77.2 µM and the TGI (HOP-92 NSCLC) was 3.24 µM. For the same compound, the TGI (M14 melanoma) was 4.2 µM, the TGI (HCC-2998 colon) was 41.3 µM and the TGI (BT-549 breast) was 1.71 µM. The TGI (HCT-15 colon) was > 100 µM, the TGI (A549 NSCLC) was > 100 µM and the TGI (TK-10 renal) was > 100 µM. For the same compound, the TGI (SK-MEL-2 melanoma) was 3.37 µM, the TGI (SK-MEL-28 melanoma) was 2.55 µM and the TGI (ACHN renal) was > 100 µM. For the same compound, the TGI (SN12C renal) was > 100 µM, the TGI (SF-295 CNS) was 96.9 µM and the TGI (UACC-62 melanoma) was 1.8 µM. The TGI (SK-MEL-5 melanoma) was 2.69 µM, the TGI (SR leukemia) was > 100 µM and the TGI (A498 renal) was > 86.7 µM. For the same compound, the TGI (HOP-62 NSCLC) was 10.5 µM, the TGI (RXF 393 renal) was 6.19 µM and the TGI (NCI-H460 lung) was > 100 µM. For the same compound, the TGI (SK-OV-3 ovarian) was > 100 µM, the TGI (NCI-H226 lung) was 3.94 µM and the TGI (UO-31 renal) was > 100 µM. For the same compound, the TGI (MDA-MB-435) was 2.34 µM, the TGI (NCI-H522 lung) was 1.5 µM and the TGI (SW-620 colon) was > 100 µM. The TGI (COLO 205 colon) was 1.96 µM, the TGI (786-0 renal) was 12.3 µM and the TGI (DU-145 prostate) was 9.81 µM. For the same compound, the TGI (OVCAR-4 ovarian) was > 27.5 µM, the TGI (OVCAR-5 ovarian) was > 100 µM and the TGI (NCI/ADR-RES ovarian) was > 100 µM. The TGI (OVCAR-3 ovarian) was 3.97 µM, the TGI (UACC-257 melanoma) was 3.38 µM and the TGI (SF-268 CNS) was 1.97 µM. For the same compound, the TGI (MALME-3M melanoma) was 3.31 µM, the TGI (MDA-MB-231 breast) was 6.69 µM and the TGI (MDA-N) was 2.53 µM. The TGI (SNB-19 CNS) was 1.92 µM.

c1ccc2c3ccn4ccc5c6ccccc6[nH]c5c4c-3nc2c1 was tested, and the TGI (PC-3 prostate) was 2.71 µM, the TGI (U251 CNS) was 0.0992 µM and the TGI (NCI-H23 lung) was 3.61 µM. It also gave a TGI (MCF7 breast) of 2.65 µM, a TGI (HT29 colon) of 1.11 µM and a TGI (HCT-116 colon) of 1.69 µM. The TGI (EKVX NSCLC) was 2.72 µM, the TGI (CAKI-1 renal) was 2.93 µM and the TGI (OVCAR-8 ovarian) was 0.638 µM. It also gave a TGI (HOP-92 NSCLC) of 3.12 µM, a TGI (M14 melanoma) of 3.79 µM and a TGI (HCC-2998 colon) of 0.879 µM. For the same compound, the TGI (BT-549 breast) was 3.6 µM, the TGI (HCT-15 colon) was 1.38 µM and the TGI (A549 NSCLC) was 1.26 µM. For the same compound, the TGI (TK-10 renal) was 4.2 µM, the TGI (SK-MEL-2 melanoma) was 3.13 µM and the TGI (SK-MEL-28 melanoma) was 3.2 µM. The TGI (ACHN renal) was 2.74 µM, the TGI (SN12C renal) was 2.68 µM and the TGI (SF-539 CNS) was 2.98 µM. It also gave a TGI (SF-295 CNS) of 3 µM, a TGI (UACC-62 melanoma) of 3.51 µM and a TGI (SK-MEL-5 melanoma) of 2.8 µM. For the same compound, the TGI (SR leukemia) was 0.625 µM, the TGI (A498 renal) was 3.02 µM and the TGI (HS 578T breast) was 5.23 µM. For the same compound, the TGI (HOP-62 NSCLC) was 2.76 µM, the TGI (NCI-H460 lung) was 0.63 µM and the TGI (IGROV1 ovarian) was 2.83 µM. For the same compound, the TGI (SK-OV-3 ovarian) was 3.02 µM, the TGI (SNB-75 CNS) was 2.98 µM and the TGI (UO-31 renal) was 2.71 µM. For the same compound, the TGI (MDA-MB-435) was 2.89 µM, the TGI (NCI-H522 lung) was 3.27 µM and the TGI (SW-620 colon) was 0.34 µM. It also gave a TGI (COLO 205 colon) of 1.79 µM, a TGI (DU-145 prostate) of 2.73 µM and a TGI (OVCAR-4 ovarian) of 0.552 µM. For the same compound, the TGI (KM12 colon) was 2.3 µM, the TGI (OVCAR-5 ovarian) was 2.92 µM and the TGI (NCI/ADR-RES ovarian) was 4.27 µM. The TGI (HL-60(TB) leukemia) was 2.43 µM, the TGI (OVCAR-3 ovarian) was 0.315 µM and the TGI (UACC-257 melanoma) was 4.25 µM. It also gave a TGI (LOX IMVI melanoma) of 0.316 µM, a TGI (MALME-3M melanoma) of 3.06 µM and a TGI (MDA-MB-231 breast) of 1.31 µM. For the same compound, the TGI (MDA-N) was 2.69 µM and the TGI (SNB-19 CNS) was 2.93 µM.
